The values that follow come from patent publication US10407467B2, “Polymyxin derivatives and their use in combination therapy together with different antibiotics” (priority 2013, dated 2019).

One assay concerns P. aeruginosa ATCC 27853. The settings on record: for effect on thigh burdens: 2 or 4 mg/kg IV three times at 1, 3.5 and 6 hours post infection; for Log reduction from vehicle (CFU/g): ATCC 27853, in vivo, iv.
Assay [1] concerns Escherichia coli. The experiment in a line: MIC, compound in combination with a second agent (broth microdilution). It is filed as cell-based. The settings on record: 1:1 (wt:wt) combination with Rifampicin, MIC = total drug concentration; for MIC E. coli ATCC25922: strain ATCC25922. In outline: (§1)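 Equal-mass combos (compound in TFA or sulphate salt form plus second agent); direct colony suspension, 0.5 McFarland; duplicate wells; MIC expressed as summed concentration of both drugs.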

The test system of assay [2] is Klebsiella pneumoniae. Described as above. The settings on record: 1:1 (wt:wt) combination with Rifampicin, MIC = total drug concentration; for MIC K. pneumoniae ATCC 4352: strain ATCC 4352; for MIC K. pneumoniae CCUG-59348: strain CCUG-59348; for MIC K. pneumoniae NCTC 13438: strain NCTC 13438; for MIC K. pneumoniae ATCC-BAA-2146: strain ATCC-BAA-2146. The class given is cell-based. In outline:
as §1

The test system of assay [3] is Acinetobacter baumannii. The description is as above. It is filed as cell-based. The following applies: 1:1 (wt:wt) combination with Rifampicin, MIC = total drug concentration; for MIC A. baumannii CCUG57249: strain CCUG57249; for MIC A. baumannii NCTC 13424: strain NCTC 13424; for MIC A. baumannii ATCC BAA-747: strain ATCC BAA-747; for MIC A. baumannii NCTC 13423: strain NCTC 13423. In outline:
as §1

The subject of assay [4] is Pseudomonas aeruginosa. Described as above. The class given is cell-based. The settings on record: 1:1 (wt:wt) combination with Rifampicin, MIC = total drug concentration; for MIC P. aeruginosa ATCC 27853: strain ATCC 27853; for MIC P. aeruginosa ATCC-47: strain ATCC-47; for MIC P. aeruginosa CCUG 59626: strain CCUG 59626; for MIC P. aeruginosa ATCC CRM-9027: strain ATCC CRM-9027. In outline:
as §1

Assay [5] has as its system Escherichia coli. Nature of the assay: MIC, sole activity (no second agent). It is filed as cell-based. The settings on record: in the absence of Rifampicin. In outline:
(§2)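 Inoculum: direct colony suspension (18-24 h MH agar), 0.5 McFarland. Medium: cation-adjusted MHB. Up to 4 strains/species; reported relative to Polymyxin B.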

The subject of assay [6] is Klebsiella pneumoniae. The experiment in a line: MIC, sole activity (no second agent). The class given is cell-based. The settings on record: in the absence of Rifampicin; for MIC K. pneumoniae CCUG-59348: strain CCUG-59348; for MIC K. pneumoniae NCTC-13438: strain NCTC-13438. In outline: as §2
Assay [7] relates to Acinetobacter baumannii. The experiment in a line: MIC, sole activity (no second agent). The class given is cell-based. The settings on record: in the absence of Rifampicin; for MIC A. baumannii ATCC13424: strain ATCC13424; for MIC A. baumannii CCUG57249: strain CCUG 57249. In outline:
as §2

For assay [8], the system named is Pseudomonas aeruginosa. Nature of the assay: MIC, sole activity (no second agent). The class given is cell-based. The settings on record: in the absence of Rifampicin; for MIC P. aeruginosa ATCC-47: strain ATCC-47; for MIC P. aeruginosa CCUG 59626: strain CCUG 59626. In outline:
as §2

Structures are written as SMILES. Counter-ions that a name gives are not always drawn. Like-named read-outs stand apart in the source and are kept apart here. Numbered stars: 1 amine (or outer) side, 2 acyl side, 3 side chain; on linkers, the order of the positions; unused ones are H or OH. Bridge positions count the residues as written; N and C are the ends. Square brackets hold non-standard residues; d marks the D form. Peptide text beside a SMILES is read from it. * marks the point of attachment. ξ: configuration not given here. Acetyl(2-(piperazin-1-yl)) = O=C(CN1CCNCC1)*; ξβ3hPhg = O=C(CC(N[*:1])c1ccccc1)[*:2]; Thr(3ξ) = CC(O)[C@H](N)C(=O)O; X10 = NC1(CC(=O)*)CCCCC1; Dab = NCC[C@H](N)C(=O)O

Regarding `CC(C)C[C@@H]1NC(=O)[C@@H](Cc2ccccc2)NC(=O)[C@H](CCN)NC(=O)[C@@H](NC(=O)[C@H](CCN)NC(=O)[C@@H](NC(=O)C(O)C2CCCCC2)C(C)O)CCNC(=O)[C@H](C(C)O)NC(=O)[C@H](CCN)NC(=O)[C@H](CCN)NC1=O` (mixture of isomers) [Example 27, 2-(RS)-(2-Hydroxy-2-cyclohexyl)ethanoyl polymyxin B nonapeptide], in the assay with P. aeruginosa ATCC 27853, the “effect on thigh burdens” value was “did not reduce thigh burdens significantly”. In addition, the “Log reduction from vehicle (CFU/g)” value with P. aeruginosa ATCC 27853 (2 mg/kg, 6 h) is reported as 0.24 log CFU/g; with P. aeruginosa ATCC 27853 (4 mg/kg, 6 h), −0.58 log CFU/g. Besides, the “MIC E. coli ATCC25922” value came to 0.25 micrograms/mL with Escherichia coli [1] and 2 micrograms/mL in the assay on Escherichia coli [5] (strain ATCC25922). Besides, the “MIC K. pneumoniae ATCC 4352” value in the assay with Klebsiella pneumoniae [2] is 0.125 micrograms/mL; in the assay with Klebsiella pneumoniae [6] (strain ATCC 4352), 2 micrograms/mL. Further, the entries for the “MIC K. pneumoniae CCUG-59348” value with Klebsiella pneumoniae [2] and in the assay on Klebsiella pneumoniae [6] were 2 micrograms/mL and >8 micrograms/mL, respectively. In the assay with Klebsiella pneumoniae [2], the “MIC K. pneumoniae NCTC 13438” value was 0.5 micrograms/mL. For the same compound, the results for the “MIC A. baumannii CCUG57249” value in the assay on Acinetobacter baumannii [3] and in the assay with Acinetobacter baumannii [7] were 0.5 micrograms/mL and 4 micrograms/mL, respectively. For the same compound, the “MIC A. baumannii NCTC 13424” value in the assay on Acinetobacter baumannii [3] is recorded as 0.5 micrograms/mL. Further, the “MIC P. aeruginosa ATCC 27853” value was determined as 0.25 micrograms/mL in the assay on Pseudomonas aeruginosa [4] and 0.125 micrograms/mL in the assay on Pseudomonas aeruginosa [8] (strain ATCC27853). In addition, the results for the “MIC P. aeruginosa ATCC-47” value in the assay on Pseudomonas aeruginosa [4] and in the assay on Pseudomonas aeruginosa [8] were 0.5 micrograms/mL and 2 micrograms/mL, respectively. Further, the “MIC P. aeruginosa CCUG 59626” value is reported as 0.5 micrograms/mL in the assay with Pseudomonas aeruginosa [4] and 0.25 micrograms/mL in the assay on Pseudomonas aeruginosa [8]. The “MIC K. pneumoniae NCTC-13438” value with Klebsiella pneumoniae [6] is >8 micrograms/mL. For the same compound, in the assay with Acinetobacter baumannii [7], the “MIC A. baumannii ATCC13424” value worked out at 4 micrograms/mL.
Consider `CC(C)C[C@@H]1NC(=O)[C@@H](Cc2ccccc2)NC(=O)[C@H](CCN)NC(=O)[C@@H](NC(=O)[C@H](CCN)NC(=O)[C@@H](NC(=O)CC(N)c2ccccc2)C(C)O)CCNC(=O)[C@H](C(C)O)NC(=O)[C@H](CCN)NC(=O)[C@H](CCN)NC1=O` (stereo partly drawn) [Example 28, [3-(R,S)-3-Amino-3-phenylpropanoyl] Polymyxin B nonapeptide] (ξβ3hPhg-[Thr(3ξ)][Dab][Dab][Dab][dF]L[Dab][Dab][Thr(3ξ)]; lactam 3-C), for which the “Log reduction from vehicle (CFU/g)” value in the assay with P. aeruginosa ATCC 27853 (2 mg/kg, 9 h) is recorded as −0.38 log CFU/g. Moreover, in the assay with P. aeruginosa ATCC 27853 (4 mg/kg, 9 h), the “Log reduction from vehicle (CFU/g)” value stood at 0.20 log CFU/g. In addition, the “MIC E. coli ATCC25922” value with Escherichia coli [1] is 0.125 micrograms/mL. For the same compound, in the assay on Klebsiella pneumoniae [2], the “MIC K. pneumoniae ATCC-BAA-2146” value is 0.5 micrograms/mL, the “MIC K. pneumoniae CCUG-59348” value is 2 micrograms/mL and the “MIC K. pneumoniae NCTC 13438” value came out at 0.25 micrograms/mL. In the assay with Acinetobacter baumannii [3], the “MIC A. baumannii ATCC BAA-747” value is listed as 0.125 micrograms/mL, the “MIC A. baumannii CCUG57249” value is 0.125 micrograms/mL, the “MIC A. baumannii NCTC 13423” value is on record as ≤0.06 micrograms/mL and the “MIC A. baumannii NCTC 13424” value turned out to be 0.125 micrograms/mL. Moreover, in the assay on Pseudomonas aeruginosa [4], the “MIC P. aeruginosa ATCC 27853” value was determined as 0.125 micrograms/mL, the “MIC P. aeruginosa ATCC CRM-9027” value is listed as 0.5 micrograms/mL, the “MIC P. aeruginosa ATCC-47” value amounted to 0.5 micrograms/mL and the “MIC P. aeruginosa CCUG 59626” value stood at 0.25 micrograms/mL. In addition, in the assay on Escherichia coli [5] (strain NCTC9001), the “MIC E. coli NCTC9001” value was found to be 32 micrograms/mL. Further, the “MIC K. pneumoniae ATCC-BAA2146” value in the assay with Klebsiella pneumoniae [6] (strain ATCC-BAA2146) is 32 micrograms/mL. Moreover, in the assay on Klebsiella pneumoniae [6], the “MIC K. pneumoniae CCUG-59348” value is >32 micrograms/mL and the “MIC K. pneumoniae NCTC-13438” value was found to be 32 micrograms/mL. Also, in the assay with Acinetobacter baumannii [7], the “MIC A. baumannii ATCC13424” value was determined as 1 micrograms/mL and the “MIC A. baumannii CCUG57249” value was determined as 1 micrograms/mL. In the assay on Pseudomonas aeruginosa [8], the “MIC P. aeruginosa ATCC-47” value was determined as 1 micrograms/mL and the “MIC P. aeruginosa CCUG 59626” value worked out at 0.5 micrograms/mL.
Take `CC(C)C[C@@H]1NC(=O)[C@@H](Cc2ccccc2)NC(=O)[C@H](CCN)NC(=O)[C@@H](NC(=O)[C@H](CCN)NC(=O)[C@@H](NC(=O)CC2(N)CCCCC2)C(C)O)CCNC(=O)[C@H](C(C)O)NC(=O)[C@H](CCN)NC(=O)[C@H](CCN)NC1=O` (stereo partly shown) [Example 42, 2-(1-aminocyclohexyl) ethanoyl Polymyxin B nonapeptide TFA salt] (X10-[Thr(3ξ)][Dab][Dab][Dab][dF]L[Dab][Dab][Thr(3ξ)]; lactam 3-C): in the assay with P. aeruginosa ATCC 27853, the “effect on thigh burdens” value is given as “did not reduce thigh burdens significantly”. In addition, the “Log reduction from vehicle (CFU/g)” value in the assay with P. aeruginosa ATCC 27853 (2 mg/kg, 6 h) is −0.03 log CFU/g. Besides, in the assay on P. aeruginosa ATCC 27853 (4 mg/kg, 6 h), the “Log reduction from vehicle (CFU/g)” value was −0.28 log CFU/g. For the same compound, the “MIC E. coli ATCC25922” value in the assay with Escherichia coli [1] is listed as ≤0.06 micrograms/mL. In addition, the “MIC E. coli NCTC9001” value in the assay with Escherichia coli [1] (strain NCTC9001) was determined as 0.125 micrograms/mL. For the same compound, in the assay on Klebsiella pneumoniae [2], the “MIC K. pneumoniae ATCC-BAA-2146” value was 0.125 micrograms/mL and the “MIC K. pneumoniae CCUG-59348” value is listed as 4 micrograms/mL. Also, in the assay on Acinetobacter baumannii [3], the “MIC A. baumannii ATCC BAA-747” value came to 0.125 micrograms/mL, the “MIC A. baumannii CCUG57249” value is ≤0.06 micrograms/mL, the “MIC A. baumannii NCTC 13423” value was ≤0.06 micrograms/mL and the “MIC A. baumannii NCTC 13424” value is ≤0.06 micrograms/mL. Also, in the assay with Pseudomonas aeruginosa [4], the “MIC P. aeruginosa ATCC 27853” value is given as 0.125 micrograms/mL, the “MIC P. aeruginosa ATCC CRM-9027” value stood at 0.25 micrograms/mL, the “MIC P. aeruginosa ATCC-47” value was ≤0.06 micrograms/mL and the “MIC P. aeruginosa CCUG 59626” value is recorded as 0.125 micrograms/mL.
Regarding `CC(C)C[C@@H]1NC(=O)[C@@H](Cc2ccccc2)NC(=O)[C@H](CCN)NC(=O)[C@@H](NC(=O)[C@H](CCN)NC(=O)[C@@H](NC(=O)CN2CCNCC2)C(C)O)CCNC(=O)[C@H](C(C)O)NC(=O)[C@H](CCN)NC(=O)[C@H](CCN)NC1=O` (stereo partly shown) [Example 52, (1-piperazine) ethanoyl polymyxin B nonapeptide, trifluoroacetate salt] ({Acetyl(2-(piperazin-1-yl))}-[Thr(3ξ)][Dab][Dab][Dab][dF]L[Dab][Dab][Thr(3ξ)]; lactam 3-C), the “effect on thigh burdens” value with P. aeruginosa ATCC 27853 was “did not reduce thigh burdens significantly”. Moreover, the “Log reduction from vehicle (CFU/g)” value with P. aeruginosa ATCC 27853 (2 mg/kg, 6 h) was −0.14 log CFU/g. Moreover, in the assay with P. aeruginosa ATCC 27853 (4 mg/kg, 6 h), the “Log reduction from vehicle (CFU/g)” value is on record as −0.18 log CFU/g. Further, the “MIC E. coli ATCC25922” value with Escherichia coli [1] was ≤0.06 micrograms/mL. Besides, in the assay on Klebsiella pneumoniae [2], the “MIC K. pneumoniae ATCC 4352” value was found to be 0.125 micrograms/mL, the “MIC K. pneumoniae ATCC-BAA-2146” value amounted to 1 micrograms/mL and the “MIC K. pneumoniae CCUG-59348” value was found to be 8 micrograms/mL. Also, in the assay on Pseudomonas aeruginosa [4], the “MIC P. aeruginosa ATCC 27853” value is listed as 0.125 micrograms/mL and the “MIC P. aeruginosa CCUG 59626” value is reported as 0.125 micrograms/mL.
